Data as given in patent US9980943B2, “Methods of treating muscular dystrophy” (BOARD OF REGENTS OF THE NEVADA SYSTEM OF HIGHER EDUCATION, …, priority 2013, dated 2018).

Tests used:
Assay type in all cases: cell-based, mouse
[1] = tested on: α7 integrin (LacZ reporter in α7βgal+/− myoblasts); test: Myoblast α7+/LacZ integrin FDG assay (Burkin assay in myoblasts, 96-well); conditions: α7+/LacZ myoblasts, 96-well; for fold induction at 0.5 µM / fold induction at 1 µM / fold induction at 5 µM / fold induction at 10 µM / fold induction at 20 µM / fold induction at 40 µM: Mus musculus, Myoblast, 48 h, read-out: Burkin Assay in Myoblasts, signal relative to DMSO
[2] = tested on: α7 integrin (LacZ reporter in α7+/LacZ myotubes); test: Myotube α7 integrin FDG assay (Burkin assay in myotubes, 96-well); conditions: myotubes; for fold induction at 0.5 µM / fold induction at 1 µM / fold induction at 5 µM / fold induction at 10 µM / fold induction at 20 µM / fold induction at 40 µM: Mus musculus, Myotube, read-out: Burkin Assay in Myotubes, α7 integrin LacZ reporter signal relative to DMSO
[3] = tested on: β-galactosidase in CMV-LacZ C2C12 myotubes; test: CMV-LacZ secondary screen in C2C12 myotubes (β-Gal stabilizing assay); conditions: for fold induction at 5 µM / fold induction at 10 µM / fold induction at 20 µM / fold induction at 40 µM: Mus musculus; for fold induction at 5 µM: C2C12, read-out: CMV-LACZ in Myotubes, signal relative to DMSO, 5 uM; for fold induction at 5 µM / fold induction at 10 µM / fold induction at 20 µM / fold induction at 40 µM / CMV-LACZ in Myotubes, signal relative to DMSO: C2C12 CMV-LacZ myotubes, fold relative to DMSO; for fold induction at 10 µM: C2C12, read-out: CMV-LACZ in Myotubes, signal relative to DMSO, 10 uM; for fold induction at 20 µM: C2C12, read-out: CMV-LACZ in Myotubes, signal relative to DMSO, 20 uM; for fold induction at 40 µM: C2C12, read-out: CMV-LACZ in Myotubes, signal relative to DMSO, 40 uM; for CMV-LACZ in Myotubes (β-galactosidase activity relative to DMSO): CMV-LacZ C2C12 myotubes, 96-well format
Outline: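 First, C2C12 myoblasts were transfected with a linearized CMV-LACZ vector and clonal lines selected by FDG β-gal assay. Then cells were exposed to compounds at 0.5, 1, 5, 10, 20 and 40 μM in 96-well format, two replicates each, and β-gal measured.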

Row | Structure (SMILES) | fold induction at 0.5 µM ([1]; 0.5 uM) | fold induction at 1 µM ([1]; 1 uM) | fold induction at 5 µM ([1]; 5 uM) | fold induction at 10 µM ([1]; 10 uM) | fold induction at 20 µM ([1]; 20 uM) | fold induction at 40 µM ([1]; 40 uM) | fold induction at 0.5 µM ([2]; 0.5 uM) | fold induction at 1 µM ([2]; 1 uM) | fold induction at 5 µM ([2]; 5 uM) | fold induction at 10 µM ([2]; 10 uM) | fold induction at 20 µM ([2]; 20 uM) | fold induction at 40 µM ([2]; 40 uM) | fold induction at 5 µM [3] | fold induction at 10 µM [3] | fold induction at 20 µM [3] | fold induction at 40 µM [3] | Burkin Assay in Myoblasts, signal relative to DMSO ([1]; 0.5 uM) | Burkin Assay in Myoblasts, signal relative to DMSO ([1]; 1 uM) | Burkin Assay in Myoblasts, signal relative to DMSO ([1]; 5 uM) | Burkin Assay in Myoblasts, signal relative to DMSO ([1]; 10 uM) | also measured
1 | COc1ccc(-n2c(C)c(C(C)=O)c3cc(OC(C)=O)ccc32)cc1 [MLS001212998-01] | 1.19 | 1.2 | 1.45 | 1.54 | 1.36 | 1.3 | 1.14 | 1.1 | 1.46 | 1.45 | 1.45 | 1.05 | 0.78 | 0.908 | 0.972 | 0.783 |  |  |  |  | 
2 | Cc1ccc(NS(=O)(=O)c2ccc3c(c2)NC(=O)CCS3)c(Br)c1 [MLS001095231-01] |  |  |  |  |  |  |  |  |  |  |  |  |  |  |  |  | 0.9692 | 0.9682 | 0.9242 | 0.8637 | Burkin Assay in Myoblasts, signal relative to DMSO ([1]; 20 uM): 0.9197; Burkin Assay in Myoblasts, signal relative to DMSO ([1]; 40 uM): 0.728; Burkin Assay in Myotubes, α7 integrin LacZ reporter signal relative to DMSO ([2]; 0.5 uM): 1.005; Burkin Assay in Myotubes, α7 integrin LacZ reporter signal relative to DMSO ([2]; 1 uM): 0.9382; Burkin Assay in Myotubes, α7 integrin LacZ reporter signal relative to DMSO ([2]; 5 uM): 1.022; Burkin Assay in Myotubes, α7 integrin LacZ reporter signal relative to DMSO ([2]; 10 uM): 0.9695; Burkin Assay in Myotubes, α7 integrin LacZ reporter signal relative to DMSO ([2]; 20 uM): 0.9863; Burkin Assay in Myotubes, α7 integrin LacZ reporter signal relative to DMSO ([2]; 40 uM): 0.8356; CMV-LACZ in Myotubes, signal relative to DMSO ([3]; 5 uM): 1.035; CMV-LACZ in Myotubes, signal relative to DMSO ([3]; 10 uM): 0.7409; CMV-LACZ in Myotubes, signal relative to DMSO ([3]; 20 uM): 0.9181; CMV-LACZ in Myotubes, signal relative to DMSO ([3]; 40 uM): 0.6229
3 | COc1ccccc1C(=O)Nc1nc2cc3c(cc2s1)OCO3 [MLS000419555-01] | 1.19 | 1.2 | 1.07 | 1.03 | 0.948 | 0.797 | 1.05 | 1.02 | 1.15 | 1.09 | 1.01 | 1.02 | 1.22 | 1.21 | 1.22 | 1.22 |  |  |  |  | 
4 | CC(=O)c1cccc(NC(=O)C2CCCN(S(=O)(=O)c3cccc4nonc34)C2)c1 (stereo not shown) [MLS000937079-01] |  |  |  |  |  |  |  |  |  |  |  |  |  |  |  |  |  |  |  |  | Burkin Assay in Myoblasts, value relative to DMSO ([1]; 0.5 uM): 1.163; Burkin Assay in Myoblasts, value relative to DMSO ([1]; 1 uM): 0.8958; Burkin Assay in Myoblasts, value relative to DMSO ([1]; 5 uM): 1.053; Burkin Assay in Myoblasts, value relative to DMSO ([1]; 10 uM): 1.147; Burkin Assay in Myoblasts, value relative to DMSO ([1]; 20 uM): 1.028; Burkin Assay in Myoblasts, value relative to DMSO ([1]; 40 uM): 0.9956; Burkin Assay in Myotubes (signal relative to DMSO) ([2]; 0.5 uM): 1.0515; Burkin Assay in Myotubes (signal relative to DMSO) ([2]; 1 uM): 0.6372; Burkin Assay in Myotubes (signal relative to DMSO) ([2]; 5 uM): 0.9756; Burkin Assay in Myotubes (signal relative to DMSO) ([2]; 10 uM): 0.8882; Burkin Assay in Myotubes (signal relative to DMSO) ([2]; 20 uM): 1.142; Burkin Assay in Myotubes (signal relative to DMSO) ([2]; 40 uM): 0.9197; CMV-LACZ in Myotubes (β-galactosidase activity relative to DMSO) ([3]; 5 uM): 1.087; CMV-LACZ in Myotubes (β-galactosidase activity relative to DMSO) ([3]; 10 uM): 0.9923; CMV-LACZ in Myotubes (β-galactosidase activity relative to DMSO) ([3]; 20 uM): 0.9641; CMV-LACZ in Myotubes (β-galactosidase activity relative to DMSO) ([3]; 40 uM): 0.9682
5 | Cc1ccc(NCc2nnc(SCC(=O)Nc3nnc(C)s3)n2C)cc1 [MLS000688437-01] |  |  |  |  |  |  |  |  |  |  |  |  |  |  |  |  | 0.8901 | 0.8878 | 0.8233 | 0.9077 | Burkin Assay in Myoblasts, signal relative to DMSO ([1]; 20 uM): 0.8203; Burkin Assay in Myoblasts, signal relative to DMSO ([1]; 40 uM): 0.8064; Burkin Assay in Myotubes, α7 integrin LacZ reporter signal relative to DMSO ([2]; 0.5 uM): 1.076; Burkin Assay in Myotubes, α7 integrin LacZ reporter signal relative to DMSO ([2]; 1 uM): 1.194; Burkin Assay in Myotubes, α7 integrin LacZ reporter signal relative to DMSO ([2]; 5 uM): 1.124; Burkin Assay in Myotubes, α7 integrin LacZ reporter signal relative to DMSO ([2]; 10 uM): 1.102; Burkin Assay in Myotubes, α7 integrin LacZ reporter signal relative to DMSO ([2]; 20 uM): 0.9929; Burkin Assay in Myotubes, α7 integrin LacZ reporter signal relative to DMSO ([2]; 40 uM): 1.034; CMV-LACZ in Myotubes, signal relative to DMSO ([3]; 5 uM): 1.232; CMV-LACZ in Myotubes, signal relative to DMSO ([3]; 10 uM): 0.9346; CMV-LACZ in Myotubes, signal relative to DMSO ([3]; 20 uM): 1.03; CMV-LACZ in Myotubes, signal relative to DMSO ([3]; 40 uM): 1.051
6 | Cc1ccc(OCC(=O)N2CCN(S(=O)(=O)c3ccc4c(c3)OCCO4)CC2)c(C)c1 [MLS002158881-01] | 0.888 | 0.838 | 0.989 | 1.02 | 1.12 | 1.21 | 0.896 | 0.865 | 0.67 | 0.773 | 1.2 | 1 | 0.792 | 0.827 | 0.864 | 0.81 |  |  |  |  | 
7 | Cl.O=C(CN1CCOCC1)NCc1cc([N+](=O)[O-])ccc1O [MLS001211976-01] |  |  |  |  |  |  |  |  |  |  |  |  |  |  |  |  | 0.9583 | 0.946 | 0.9018 | 0.9154 | Burkin Assay in Myoblasts, signal relative to DMSO ([1]; 20 uM): 0.9417; Burkin Assay in Myoblasts, signal relative to DMSO ([1]; 40 uM): 0.8952; Burkin Assay in Myotubes, α7 integrin LacZ reporter signal relative to DMSO ([2]; 0.5 uM): 1.032; Burkin Assay in Myotubes, α7 integrin LacZ reporter signal relative to DMSO ([2]; 1 uM): 1.2336; Burkin Assay in Myotubes, α7 integrin LacZ reporter signal relative to DMSO ([2]; 5 uM): 1.241; Burkin Assay in Myotubes, α7 integrin LacZ reporter signal relative to DMSO ([2]; 10 uM): 1.199; Burkin Assay in Myotubes, α7 integrin LacZ reporter signal relative to DMSO ([2]; 20 uM): 1.099; Burkin Assay in Myotubes, α7 integrin LacZ reporter signal relative to DMSO ([2]; 40 uM): 1.1302; CMV-LACZ in Myotubes, signal relative to DMSO ([3]; 5 uM): 0.8547; CMV-LACZ in Myotubes, signal relative to DMSO ([3]; 10 uM): 0.9979; CMV-LACZ in Myotubes, signal relative to DMSO ([3]; 20 uM): 0.9697; CMV-LACZ in Myotubes, signal relative to DMSO ([3]; 40 uM): 1.014
